± gives the expanded uncertainty stated by the source.
Assay: refractive index (other wavelength) (dimensionless); xn = mol fraction of the nth substance listed
Conditions: 101 kPa, Liquid, Standard Abbe refractometry

CC(C)OC(C)C [diisopropyl ether] + CO
Conditions	refractive index
308.15 K, Wavelength=632.8 nm, x2 = 0.9527	1.32818 ± 0.00032
308.15 K, Wavelength=632.8 nm, x2 = 0.9773	1.32479 ± 0.00031
308.15 K, Wavelength=632.8 nm, x2 = 0.989	1.32358 ± 0.00032
308.15 K, Wavelength=632.8 nm, x2 = 0.9964	1.32256 ± 0.00032
308.15 K, Wavelength=644 nm, x2 = 0	1.35823 ± 0.00043
308.15 K, Wavelength=644 nm, x2 = 0.0423	1.35813 ± 0.00043
308.15 K, Wavelength=644 nm, x2 = 0.0424	1.35825 ± 0.00043
308.15 K, Wavelength=644 nm, x2 = 0.082	1.35812 ± 0.00042
308.15 K, Wavelength=644 nm, x2 = 0.0822	1.35825 ± 0.00042
308.15 K, Wavelength=644 nm, x2 = 0.1171	1.35814 ± 0.00041
308.15 K, Wavelength=644 nm, x2 = 0.1271	1.35813 ± 0.00041
308.15 K, Wavelength=644 nm, x2 = 0.1827	1.35788 ± 0.0004
308.15 K, Wavelength=644 nm, x2 = 0.2162	1.35771 ± 0.0004
308.15 K, Wavelength=644 nm, x2 = 0.251	1.35735 ± 0.00039
308.15 K, Wavelength=644 nm, x2 = 0.3298	1.35728 ± 0.00038
308.15 K, Wavelength=644 nm, x2 = 0.3577	1.35703 ± 0.00038
308.15 K, Wavelength=644 nm, x2 = 0.4497	1.35516 ± 0.00037
308.15 K, Wavelength=644 nm, x2 = 0.4525	1.35557 ± 0.00037
308.15 K, Wavelength=644 nm, x2 = 0.522	1.35341 ± 0.00035
308.15 K, Wavelength=644 nm, x2 = 0.5543	1.35268 ± 0.00035
308.15 K, Wavelength=644 nm, x2 = 0.609	1.35028 ± 0.00034
308.15 K, Wavelength=644 nm, x2 = 0.6529	1.34881 ± 0.00034
308.15 K, Wavelength=644 nm, x2 = 0.7504	1.345 ± 0.00033
308.15 K, Wavelength=644 nm, x2 = 0.804	1.34088 ± 0.00033
308.15 K, Wavelength=644 nm, x2 = 0.807	1.34066 ± 0.00033
308.15 K, Wavelength=644 nm, x2 = 0.8727	1.33698 ± 0.00032
308.15 K, Wavelength=644 nm, x2 = 0.9233	1.32908 ± 0.00033
308.15 K, Wavelength=644 nm, x2 = 0.9253	1.331 ± 0.00033
308.15 K, Wavelength=644 nm, x2 = 0.9527	1.32794 ± 0.00032
308.15 K, Wavelength=644 nm, x2 = 0.9773	1.32455 ± 0.00032
308.15 K, Wavelength=644 nm, x2 = 0.989	1.32334 ± 0.00032
308.15 K, Wavelength=644 nm, x2 = 0.9964	1.32232 ± 0.00032
308.15 K, Wavelength=706.5 nm, x2 = 0	1.35683 ± 0.00043
308.15 K, Wavelength=706.5 nm, x2 = 0.0423	1.35672 ± 0.00043
308.15 K, Wavelength=706.5 nm, x2 = 0.0424	1.35677 ± 0.00043
308.15 K, Wavelength=706.5 nm, x2 = 0.082	1.35671 ± 0.00042
308.15 K, Wavelength=706.5 nm, x2 = 0.0822	1.35685 ± 0.00042
308.15 K, Wavelength=706.5 nm, x2 = 0.1171	1.35672 ± 0.00041
308.15 K, Wavelength=706.5 nm, x2 = 0.1271	1.35672 ± 0.00041
308.15 K, Wavelength=706.5 nm, x2 = 0.1827	1.35648 ± 0.0004
308.15 K, Wavelength=706.5 nm, x2 = 0.2162	1.35631 ± 0.0004
308.15 K, Wavelength=706.5 nm, x2 = 0.251	1.35595 ± 0.00039
308.15 K, Wavelength=706.5 nm, x2 = 0.3298	1.35588 ± 0.00038
308.15 K, Wavelength=706.5 nm, x2 = 0.3577	1.35565 ± 0.00038
308.15 K, Wavelength=706.5 nm, x2 = 0.4497	1.35375 ± 0.00037
308.15 K, Wavelength=706.5 nm, x2 = 0.4525	1.35416 ± 0.00037
308.15 K, Wavelength=706.5 nm, x2 = 0.522	1.35202 ± 0.00035
308.15 K, Wavelength=706.5 nm, x2 = 0.5543	1.35129 ± 0.00035
308.15 K, Wavelength=706.5 nm, x2 = 0.609	1.34894 ± 0.00034
308.15 K, Wavelength=706.5 nm, x2 = 0.6529	1.34745 ± 0.00034
308.15 K, Wavelength=706.5 nm, x2 = 0.7504	1.34368 ± 0.00033
308.15 K, Wavelength=706.5 nm, x2 = 0.804	1.33959 ± 0.00033
308.15 K, Wavelength=706.5 nm, x2 = 0.807	1.33939 ± 0.00033
308.15 K, Wavelength=706.5 nm, x2 = 0.8727	1.33572 ± 0.00032
308.15 K, Wavelength=706.5 nm, x2 = 0.9233	1.32789 ± 0.00033
308.15 K, Wavelength=706.5 nm, x2 = 0.9253	1.32976 ± 0.00033
308.15 K, Wavelength=706.5 nm, x2 = 0.9527	1.32672 ± 0.00032
308.15 K, Wavelength=706.5 nm, x2 = 0.9773	1.32336 ± 0.00032
308.15 K, Wavelength=706.5 nm, x2 = 0.989	1.32216 ± 0.00031
308.15 K, Wavelength=706.5 nm, x2 = 0.9964	1.32114 ± 0.00031
313.15 K, Wavelength=40.47 nm, x2 = 0	1.3674 ± 0.00044
313.15 K, Wavelength=40.47 nm, x2 = 0.0423	1.36734 ± 0.00043
313.15 K, Wavelength=40.47 nm, x2 = 0.0424	1.3674 ± 0.00043
313.15 K, Wavelength=40.47 nm, x2 = 0.082	1.36731 ± 0.00042
313.15 K, Wavelength=40.47 nm, x2 = 0.0822	1.3675 ± 0.00042
313.15 K, Wavelength=40.47 nm, x2 = 0.1171	1.36734 ± 0.00041
313.15 K, Wavelength=40.47 nm, x2 = 0.1271	1.36736 ± 0.00041
313.15 K, Wavelength=40.47 nm, x2 = 0.1827	1.36712 ± 0.0004
313.15 K, Wavelength=40.47 nm, x2 = 0.2162	1.36696 ± 0.0004
313.15 K, Wavelength=40.47 nm, x2 = 0.251	1.36648 ± 0.00039
313.15 K, Wavelength=40.47 nm, x2 = 0.3298	1.36657 ± 0.00038
313.15 K, Wavelength=40.47 nm, x2 = 0.3577	1.36568 ± 0.00038
313.15 K, Wavelength=40.47 nm, x2 = 0.4497	1.36434 ± 0.00037
313.15 K, Wavelength=40.47 nm, x2 = 0.4525	1.36476 ± 0.00037
313.15 K, Wavelength=40.47 nm, x2 = 0.522	1.36255 ± 0.00035
313.15 K, Wavelength=40.47 nm, x2 = 0.5543	1.36165 ± 0.00035
313.15 K, Wavelength=40.47 nm, x2 = 0.609	1.35929 ± 0.00034
313.15 K, Wavelength=40.47 nm, x2 = 0.6529	1.35769 ± 0.00034
313.15 K, Wavelength=40.47 nm, x2 = 0.7504	1.35369 ± 0.00033
313.15 K, Wavelength=40.47 nm, x2 = 0.804	1.34918 ± 0.00033
313.15 K, Wavelength=40.47 nm, x2 = 0.807	1.34928 ± 0.00033
313.15 K, Wavelength=40.47 nm, x2 = 0.8727	1.3456 ± 0.00032
313.15 K, Wavelength=40.47 nm, x2 = 0.9233	1.33747 ± 0.00033
313.15 K, Wavelength=40.47 nm, x2 = 0.9253	1.33918 ± 0.00033
313.15 K, Wavelength=40.47 nm, x2 = 0.9527	1.33616 ± 0.00032
313.15 K, Wavelength=40.47 nm, x2 = 0.9773	1.33271 ± 0.00032
313.15 K, Wavelength=40.47 nm, x2 = 0.989	1.33146 ± 0.00032
313.15 K, Wavelength=40.47 nm, x2 = 0.9964	1.33048 ± 0.00032
313.15 K, Wavelength=435.8 nm, x2 = 0	1.36447 ± 0.00044
313.15 K, Wavelength=435.8 nm, x2 = 0.0423	1.36444 ± 0.00042
313.15 K, Wavelength=435.8 nm, x2 = 0.0424	1.36447 ± 0.00043
313.15 K, Wavelength=435.8 nm, x2 = 0.082	1.3644 ± 0.00042
313.15 K, Wavelength=435.8 nm, x2 = 0.0822	1.36459 ± 0.00042

Source: the NIST ThermoML archive (doi:10.1016/j.fluid.2014.09.014)
